Experimental data published in the supplement of paper PMC10331698.
± gives the standard deviation of the averaged measurements.

Experiments:
Experiment in all cases: level (log10 ratio to DMSO vehicle control); higher = higher biomarker level / cell amount than vehicle control
[1] = compound: OCC(F)(F)C(F)(F)C(F)(F)C(F)(F)C(F)(F)C(F)(F)C(F)(F)C(F)(F)CO [1H,1H,10H,10H-Perfluorodecane-1,10-diol]; details: in DMSO
Procedure: (§1)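 BioMAP Diversity Plus panel of 12 human primary cell co-culture systems (3C, 4H, LPS, SAg, BT, BF4T, BE3C, CASM3C, HDF3CGF, KF3CT, MyoF, Mphg). Compounds were added 1 h before stimulation and left for 24 h (MyoF 48 h; BT 72 h for soluble read-outs or 6 d for IgG). Biomarkers were read by ELISA, cytotoxicity by SRB, PBMC viability and proliferation by Alamar Blue. Each well value was divided by the mean of 8 DMSO control wells on the same plate and log10 transformed; duplicate blinded samples were tested at 4 concentrations.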

[2] = compound: C=CC(=O)OCC(F)(F)C(F)(F)C(F)(F)C(F)(F)C(F)(F)C(F)(F)C(F)(F)C(F)F [1H,1H,9H-Perfluorononyl acrylate]; details: in DMSO
Procedure: as §1

Perfluoropinacol = compound: OC(C(F)(F)F)(C(F)(F)F)C(O)(C(F)(F)F)C(F)(F)F [Perfluoropinacol]; details: in DMSO
Procedure: as §1

[3] = compound: O=S(=O)(O)CCC(F)(F)C(F)(F)C(F)(F)C(F)(F)F [4:2 Fluorotelomer sulfonic acid]; details: in DMSO
Procedure: as §1

[4] = compound: OCCC(F)(F)C(F)(F)C(F)(F)C(F)(F)C(F)(F)C(F)(F)C(F)(F)C(F)(F)F [8:2 Fluorotelomer alcohol]; details: 6700 nM; in DMSO
Procedure: as §1

Tetrafluorosuccinic acid = compound: O=C(O)C(F)(F)C(F)(F)C(=O)O [Tetrafluorosuccinic acid]; details: in DMSO
Procedure: as §1

[5] = compound: O=C(O)C(F)(F)C(F)(F)C(F)(F)C(F)(F)C(F)(F)C(F)(F)C(F)(F)F [Ammonium perfluorooctanoate]; details: in DMSO
Procedure: as §1

| Test System | level (log10) ([1]; 6700 nM) | level (log10) ([1]; 20000 nM) | level (log10) ([1]; 60000 nM) | level (log10) ([2]; 6700 nM) | level (log10) ([2]; 20000 nM) | level (log10) ([2]; 60000 nM) | level (log10) (Perfluoropinacol; 6700 nM) | level (log10) (Perfluoropinacol; 20000 nM) | level (log10) ([3]; 6700 nM) | level (log10) ([3]; 20000 nM) | level (log10) ([3]; 60000 nM) | level (log10) [4] | level (log10) (Tetrafluorosuccinic acid; 6700 nM) | level (log10) (Tetrafluorosuccinic acid; 20000 nM) | level (log10) (Tetrafluorosuccinic acid; 60000 nM) | level (log10) ([5]; 6700 nM) | level (log10) ([5]; 20000 nM) | level (log10) ([5]; 60000 nM) |
| --- | --- | --- | --- | --- | --- | --- | --- | --- | --- | --- | --- | --- | --- | --- | --- | --- | --- | --- |
| SAg:CD62E/E-Selectin | -0.0215 ± 0.005 | -0.015 ± 0.0099 | -0.015 | -0.0345 ± 0.016 | -0.0595 ± 0.015 | -0.121 ± 0.052 | 0.008 ± 0.0071 | -0.15 ± 0.0021 | -0.016 ± 0.0085 | -0.011 ± 0.0071 | 0.009 ± 0.0071 | -0.012 | -0.015 | -0.003 ± 0.016 | 0.0035 ± 0.0035 | 0.0045 ± 0.0035 | 0.02 ± 0.013 | 0.035 ± 0.0014 |
| BT:sIL-2 | 0.002 ± 0.035 | 0.0135 ± 0.005 | -0.482 | 0.118 ± 0.042 | -0.0285 ± 0.11 | -0.514 ± 0.61 | 0.107 ± 0.059 | 0.0335 ± 0.071 | -0.009 ± 0.059 | -0.044 ± 0.037 | 0.038 ± 0.02 | 0.001 ± 0.052 | -0.0195 ± 0.035 | 0.03 ± 0.083 | 0.0825 ± 0.13 | -0.046 ± 0.0057 | -0.0075 ± 0.074 | -0.006 ± 0.1 |
| LPS:sPGE2 | -0.0125 ± 0.03 | 0.0375 ± 0.0078 | 0.025 | -0.046 ± 0.0071 | -0.123 ± 0.053 | -0.15 ± 0.11 | 0.086 ± 0.038 | 0.182 ± 0.015 | -0.035 ± 0.078 | 0.025 ± 0.064 | 0.026 ± 0.0028 | -0.11 ± 0.033 | 0.0125 ± 0.032 | -0.002 ± 0.047 | 0.054 ± 0.031 | -0.0185 ± 0.022 | -0.067 ± 0.018 | -0.172 ± 0.044 |
| BT:sIL-6 | -0.0075 ± 0.011 | -0.0405 ± 0.032 | -0.673 | -0.073 ± 0.018 | -0.269 ± 0.07 | -0.693 ± 0.5 | -0.073 ± 0.051 | -0.0655 ± 0.019 | 0.047 ± 0.041 | -0.0105 ± 0.011 | -0.052 ± 0.13 | 0.0665 ± 0.013 | -0.0225 ± 0.0064 | -0.018 ± 0.025 | -0.033 ± 0.011 | -0.0485 ± 0.0021 | -0.0025 ± 0.037 | -0.034 ± 0.085 |
| BF4T:tPA | -0.061 ± 0.016 | -0.164 ± 0.013 | -0.246 | -0.0135 ± 0.028 | -0.006 ± 0.011 | -0.0395 ± 0.026 | -0.028 ± 0.011 | 0.032 ± 0.014 | -0.0295 ± 0.023 | -0.0295 ± 0.03 | 0.0055 ± 0.06 | -0.103 ± 0.029 | -0.0145 ± 0.0078 | -0.006 ± 0.034 | -0.025 ± 0.013 | -0.0185 ± 0.0064 | -0.041 ± 0.018 | -0.0565 ± 0.0021 |
| LPS:CD106/VCAM-1 | -0.034 ± 0.028 | -0.0485 ± 0.012 | -0.052 | -0.002 ± 0.011 | -0.0365 ± 0.019 | -0.0565 ± 0.0021 | 0.0045 ± 0.013 | -0.0825 ± 0.015 | -0.0065 ± 0.013 | -0.006 ± 0.027 | -0.0125 ± 0.059 | -0.0785 ± 0.042 | -0.0245 ± 0.026 | -0.007 ± 0.0057 | 0.002 ± 0.018 | 0.001 ± 0.0042 | 0.0035 ± 0.015 | -0.013 ± 0.0028 |
| LPS:SRB | 0.0005 ± 0.016 | -0.012 ± 0.017 | -0.042 | -0.006 ± 0.0028 | 0.003 ± 0.0042 | -0.0055 ± 0.011 | -0.0265 ± 0.0021 | -0.151 ± 0.0064 | -0.0085 ± 0.0021 | -0.003 ± 0.0085 | -0.011 ± 0.018 | -0.0125 ± 0.011 | -0.0055 ± 0.013 | -0.008 ± 0.0014 | -0.017 ± 0.0042 | -0.006 ± 0.0071 | -0.0065 ± 0.00071 | -0.0245 ± 0.005 |
| BE3C:CD54/ICAM-1 | 0.004 ± 0.0085 | -0.0305 ± 0.0064 | -0.232 | -0.01 ± 0.0042 | -0.0095 ± 0.013 | -0.0165 ± 0.011 | -0.003 ± 0.0085 | -0.0095 ± 0.0035 | -0.004 ± 0.0085 | -0.009 ± 0.014 | -0.0155 ± 0.0021 | 0.001 ± 0.0099 | 0.0015 ± 0.025 | 0.0065 ± 0.00071 | 0.0115 ± 0.00071 | -0.01 ± 0.014 | -0.0085 ± 0.0021 | -0.0015 ± 0.015 |
| LPS:CD62E/E-Selectin | -0.064 ± 0.04 | -0.0475 ± 0.0021 | -0.038 | -0.002 ± 0.027 | 0.0165 ± 0.026 | -0.008 | 0.003 ± 0.0085 | -0.027 ± 0.028 | 0.027 ± 0.028 | 0.027 ± 0.041 | 0.0285 ± 0.066 | 0.012 ± 0.018 | 0.0155 ± 0.036 | 0.003 ± 0.011 | 0.0275 ± 0.013 | -0.0015 ± 0.0092 | -0.012 ± 0.0028 | 0.0025 ± 0.013 |
| BT:PBMC Cytotoxicity | 0.0065 ± 0.026 | -0.012 ± 0.0085 | -0.246 | -0.047 ± 0.0085 | -0.1 ± 0.0085 | -0.287 ± 0.1 | 0.011 ± 0.017 | -0.0095 ± 0.023 | 0.0075 ± 0.023 | 0 ± 0.0014 | 0.0435 ± 0.03 | 0.001 ± 0.038 | 0.0305 ± 0.012 | 0.026 ± 0.0042 | 0.024 ± 0.014 | -0.0115 ± 0.047 | -0.009 ± 0.033 | 0.0565 ± 0.015 |
| SAg:CD69 | -0.042 ± 0.044 | -0.0685 ± 0.066 | -0.119 | -0.0475 ± 0.028 | -0.0395 ± 0.03 | -0.099 ± 0.018 | -0.039 ± 0.017 | -0.19 ± 0.033 | -0.023 ± 0.027 | -0.0165 ± 0.028 | -0.028 ± 0.037 | -0.018 ± 0.018 | 0.012 ± 0.061 | 0.0055 ± 0.025 | 0.023 ± 0.02 | -0.0115 ± 0.00071 | -0.026 ± 0.0014 | -0.062 ± 0.0085 |
| BF4T:CD90 | -0.051 ± 0.0014 | -0.071 ± 0.0099 | -0.018 | -0.0085 ± 0.016 | 0.005 ± 0.0071 | -0.022 ± 0.0071 | -0.015 ± 0.017 | -0.024 ± 0.0071 | -0.0075 ± 0.0092 | -0.018 ± 0.0042 | -0.011 ± 0.014 | -0.022 ± 0.0099 | -0.0115 ± 0.012 | -0.015 ± 0.024 | -0.017 ± 0.0042 | -0.007 ± 0.0028 | -0.015 ± 0.0028 | -0.001 ± 0.0028 |
| BF4T:MMP-9 | -0.0185 ± 0.015 | -0.063 ± 0.0028 | -0.135 | 0.0145 ± 0.019 | 0.0235 ± 0.019 | 0.031 ± 0.0014 | -0.0245 ± 0.00071 | -0.0515 ± 0.0092 | -0.023 ± 0.023 | -0.02 ± 0.0028 | 0.0205 ± 0.033 | -0.0325 ± 0.0078 | -0.003 ± 0.021 | -0.0075 ± 0.022 | -0.014 ± 0.0085 | 0.017 ± 0.023 | 0.028 ± 0.0057 | 0.0375 ± 0.025 |
| BE3C:EGFR | -0.031 ± 0.0085 | -0.042 | -0.102 | -0.0025 ± 0.005 | 0.003 ± 0.0071 | -0.014 ± 0.023 | 0.0065 ± 0.00071 | -0.027 ± 0.0085 | 0.0115 ± 0.00071 | -0.009 ± 0.0014 | 0.002 ± 0.0085 | -0.019 ± 0.0014 | -0.008 ± 0.0042 | -0.0055 ± 0.019 | 0.003 ± 0.0042 | -0.006 ± 0.0028 | 0.001 ± 0.028 | -0.022 ± 0.013 |
| BF4T:CCL2/MCP-1 | -0.0755 ± 0.05 | -0.273 ± 0.049 | -0.329 | -0.015 ± 0.047 | -0.0035 ± 0.0035 | 0.0155 ± 0.026 | 0.0435 ± 0.032 | -0.0175 ± 0.015 | 0.0145 ± 0.037 | 0.0075 ± 0.00071 | 0.0395 ± 0.022 | -0.0135 ± 0.0035 | -0.007 ± 0.0028 | -0.0135 ± 0.0064 | -0.0215 ± 0.016 | -0.0015 ± 0.013 | 0.0005 ± 0.036 | -0.016 ± 0.069 |
| BE3C:CXCL11/I-TAC | -0.0145 ± 0.0078 | -0.149 ± 0.025 | -0.901 | 0.0045 ± 0.00071 | 0.0085 ± 0.013 | -0.005 ± 0.0085 | 0.0435 ± 0.00071 | 0.0115 ± 0.021 | 0.008 ± 0.0042 | 0.043 ± 0.033 | 0.0485 ± 0.0092 | -0.012 ± 0.0014 | 0.002 ± 0.0042 | -0.0025 ± 0.0092 | -0.002 ± 0.0014 | 0.0095 ± 0.018 | 0.0125 ± 0.019 | -0.0295 ± 0.0035 |
